A word on the inhibition: it is the change of the read-out against control, counted positive when it falls.

31 molecules from paper PMC7802075 (ACS Infectious Diseases, 2020) can be followed below.

In one assay the target is T1, LmjIPCS (inositol phosphorylceramide synthase from L. major) (Leishmania major, UniProt E9AFX2).
T1 sequence (E9AFX2 1-338): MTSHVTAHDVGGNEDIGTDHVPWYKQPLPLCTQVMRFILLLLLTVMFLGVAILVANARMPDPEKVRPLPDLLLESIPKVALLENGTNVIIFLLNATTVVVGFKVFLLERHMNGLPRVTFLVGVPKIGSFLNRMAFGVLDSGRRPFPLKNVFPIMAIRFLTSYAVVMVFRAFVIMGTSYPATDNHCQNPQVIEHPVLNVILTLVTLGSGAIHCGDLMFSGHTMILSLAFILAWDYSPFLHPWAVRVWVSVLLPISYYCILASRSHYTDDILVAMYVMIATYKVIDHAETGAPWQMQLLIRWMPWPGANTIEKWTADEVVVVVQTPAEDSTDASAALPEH
As to the kind of experiment: biochemical. Format: biochemical. Also noted: inhibition: dose or concentration left out as unconfirmed.
Details: not given
For `O=C1CCO1` [BETA-PROPIOLACTONE], the “20mM inhibition LmjIPCS” value is 1.45%.
Same read-out and setting: with `C[C@H]1C[C@H]2[C@@H]3CCC4=CC(=O)C=C[C@]4(C)[C@@]3(F)[C@@H](O)C[C@]2(C)[C@@]1(O)C(=O)CO` [BETAMETHASONE] the figure was 45%; with `CC(C[N+](C)(C)C)OC(N)=O` (stereo not shown) [BETHANECHOL], 53%; with `c1ccc(-c2ccc(C(c3ccccc3)n3ccnc3)cc2)cc1` (stereo not shown) [BIFONAZOLE], 52%.
Same read-out and setting: with `CC(=O)Oc1ccc(C(c2ccc(OC(C)=O)cc2)c2ccccn2)cc1` [BISACODYL] the figure was 48%.
For `Oc1c(Cl)cc(Cl)cc1Sc1cc(Cl)cc(Cl)c1O` [BITHIONOL], the “20mM inhibition LmjIPCS” value was 41%.
Still for that read-out and setting: the result for `O=C(O)CC[N+](=O)[O-]` [BOVINOCIDIN] reads 21%.
On the same count and under the same terms, the result for `Oc1c(Br)cc(Br)c2cccnc12` [BROXYQUINOLINE] reads 61%; that for `CCOc1nc2cccc(C(=O)OC(C)OC(=O)OC3CCCCC3)c2n1Cc1ccc(-c2ccccc2-c2nn[nH]n2)cc1` (stereo not shown) [CANDESARTAN CILEXTIL], 11%.

The assay is the same for the next values; noted with them: NINDS set screen, single concentration printed as 20mM.
For the molecule `CN(Cc1cc(Br)cc(Br)c1N)C1CCCCC1` [BROMHEXINE], the “20mM inhibition LmjIPCS” value is listed as 53%.
Same read-out and setting: the result for `CS(=O)(=O)OCCCCOS(C)(=O)=O` [BUSULFAN] reads 44%.
On the same count and under the same terms, the result for `C[N+](C)(C)CCOC(N)=O` [CARBACHOL] reads 57%.

The same assay, now with this note: NINDS set screen; read-out: inhibition LmjIPCS.
With `CCCCN(CCCC)CCCOC(=O)c1ccc(N)cc1` [BUTACAINE], the inhibition is 19%.
Same read-out and setting: the result for `CCCCOC(=O)c1ccc(N)cc1` [BUTAMBEN] reads 14%; that for `CC1=C(/C=C/C(C)=C/C=C/C(C)=C/C=C/C=C(C)/C=C/C=C(C)/C=C/C(=O)[C@]2(C)C[C@@H](O)CC2(C)C)C(C)(C)C[C@H](O)C1` [CAPSANTHIN], 33%; that for `COC(=O)N/N=C/c1c[n+]([O-])c2ccccc2[n+]1[O-]` [CARBADOX], 12%.

The assay is the same for the next values; noted with them: read-out: 20mM inhibition LmjIPCS.
As to `O=C(O)CCNC(=O)c1ccccc1` [BETAMIPRON], the inhibition at 20000 µM is -3.5%.
The same measure, in the same setting: with `C=C(C)[C@@H]1CC[C@]2(C(=O)O)CC[C@]3(C)[C@H](CC[C@@H]4[C@@]5(C)CC[C@H](O)C(C)(C)[C@@H]5CC[C@]43C)[C@@H]12` [BETULINIC ACID] the figure was 21%.
On the same count and under the same terms, with `CN(C)CCC(c1ccc(Br)cc1)c1ccccn1` (stereo not shown) [BROMPHENIRAMINE] the figure was 14%; with `CCCC(=O)Nc1ncnc2c1ncn2[C@@H]1O[C@@H]2COP(=O)(O)O[C@H]2[C@H]1OC(=O)CCC` [BUCLADESINE], -1.88%.
Consider `O=C(O)CN(CC(=O)O)Cc1cc2c(cc1O)Oc1cc(O)c(CN(CC(=O)O)CC(=O)O)cc1C21OC(=O)c2ccccc21` [CALCEIN], for which the inhibition at 20000 µM is 0%.
For `CC[C@@]1(O)C(=O)OCc2c1cc1n(c2=O)Cc2cc3ccccc3nc2-1` [CAMPTOTHECIN], the inhibition at 20000 µM was determined as 1.2%.
Regarding `C[C@]12CCC(=O)C=C1C=C[C@@H]1[C@@H]2CC[C@@]2(C)[C@H]1CC[C@@]21CCC(=O)O1` [CANRENONE], the inhibition at 20000 µM amounted to 12%.
Still for that read-out and setting: with `C[C@H](CS)C(=O)N1CCC[C@H]1C(=O)O` [CAPTOPRIL] the figure was 1.19%.

Staying with this assay, now noted: read-out: inhibition LmjIPCS.
`CC(C)(Oc1ccc(CCNC(=O)c2ccc(Cl)cc2)cc1)C(=O)O` [BEZAFIBRATE]: the inhibition worked out at 11%.
Same read-out and setting: the result for `CC[N+](C)(C)Cc1ccccc1Br` [BRETYLIUM] reads 14%.
Same read-out and setting: with `CCN(CC)CCNC(=O)c1cc(Br)c(N)cc1OC` [BROMOPRIDE] the figure was 17%.
Still for that read-out and setting: the result for `CCCCNc1cc(C(=O)O)cc(S(N)(=O)=O)c1Oc1ccccc1` [BUMETANIDE] reads 9%.
As to `CC(NC(C)(C)C)C(=O)c1cccc(Cl)c1` (stereo not shown) [BUPROPION], the inhibition is 29%.
Still for that read-out and setting: with `C[C@]12CCC(=O)C=C1C=C[C@@H]1[C@@H]2CC[C@@]2(C)[C@H]1CC[C@@]2(O)CCC(=O)O` [CANRENOIC ACID] the figure was 7%.

Staying with this assay, now noted: screening of NINDS set, sheet Screen 1; read-out: inhibition LmjIPCS.
On to `CCCCN1CCCCC1C(=O)Nc1c(C)cccc1C` (stereo not shown) [BUPIVACAINE], for which the inhibition worked out at 5.35%.
